The Ki is the equilibrium dissociation constant of an inhibitor or competing ligand from its target.

Two compounds from BindingDB's records for doi:10.1039/d0md00137f (University of Regensburg, 2020) can be followed below.

For the assay, the target named is Muscarinic acetylcholine receptor M2 (Homo sapiens) (UniProt P08172). Kind of assay: Displacement of [3H]NMS from human recombinant muscarinic receptor M2 expressed in […] cell membranes measured after 3 hrs by radioligand competition binding assay.

Turning to `Cc1cc(/C=C/C=C/c2ccc(N(C)C)cc2)cc(C)[n+]1CCN1CCN(CCCCC2CCN(CC(=O)N3c4ccccc4NC(=O)c4ccccc43)CC2)CC1`, the inhibition constant (Ki) turned out to be 3 nM. For `NCCNC(=O)CCc1cn(CCCCC2CCN(CC(=O)N3c4ccccc4NC(=O)c4ccccc43)CC2)cn1`, the Ki is 0.589 nM.
